Data published in publication PMC7920274, “Targeting of CXCR4 by the Naturally Occurring CXCR4 Antagonist EPI-X4 in Waldenström’s Macroglobulinemia” (Cancers, 2021).
“Also recorded” adds a separate entry of the source.

Assays:
CXCR7 = system: CXCR7; set-up: method as in PMID 25921529; conditions: cited from earlier work
[1] = system: mitochondrial cytotoxicity; conditions: cited from earlier work
[2] = system: CXCR4 mutant-expressing cells; conditions: cited from earlier work
WM cells = test: Transwell migration of WM cells, general statement; type: cell-based; conditions: 10 nM CXCL12, 2 h, 37 °C; non-specific migration 3,4%; CellTiter-Glo
Experimental: 10 nM CXCL12 was supplemented to the lower chamber. After 2 h incubation at 37 °C, 5% CO2, cells that had migrated to the lower compartment were analyzed using the CellTiter-Glo Luminescent Cell Viability Assay (Promega, Madison, WI, USA) according to the manufacturer’s instructions. Percentage of specific migration was calculated using the following formula: % migration = ((specific migration-unspecific migration)/total cells) × 100. The average of absolute percentage of non-specific migration was very low in some experiments with 3,4% compared to an average of 81% CXCL12 induced migration.

[3] = system: ERK1 (Tyr204)/ERK2 (Tyr187) phosphorylation, CXCR4 transduced BCWM.1 cells; test: ERK phosphorylation by flow cytometry, CXCR4-transduced BCWM.1 cells; type: cell-based; conditions: wild-type or mutated CXCR4 or empty vector control; Figure S5B
Experimental: Cells (100,000) were seeded in 100 µL starvation medium (RPMI, 1% FCS) and starved for 2 h. 5 µL compound in PBS was added and cells were further incubated for 15 min. Afterwards, 5 µL CXCL12 (100 ng/mL final concentration on cells) was added for 2 min before the reaction was stopped by adding PFA and shifting to 4 °C. After 15 min, medium was removed by centrifugation and cells permeabilized by adding ice cold MetOH for 15 min. Cells were then washed and the first antibody was added (phospho-p44/42 MAPK (Erk1) (Tyr204)/(Erk2) (Tyr187) (D1H6G) mouse mAb (Cell Signaling, Danvers, Massachusetts, USA, #5726) and phospho-Akt (Ser473) (193H12) rabbit mAb (Cell Signaling, #4058)) for 2 h and stained with adequate secondary antibody afterwards. Cells were analyzed by flow cytometry with FACS Cytoflex (Beckman Coulter, Brea, CA, USA). For time-kinetic experiments, fold-stimulation was determined by MFI (stimulated)/MFI (unstimulated) for each time point. For inhibition experiments, MFI from unstimulated cells was subtracted from each point and signal of stimulated cells without inhibitor normalized to 100%.

Molecule	Interaction with CXCR7 (CXCR7)	Mitochondrial cytotoxicity [1]	Abrogation of CXCL12 rescue from ibrutinib-induced apoptosis [2]	CXCL12 induced migration, average (WM cells)	CXCL12 effect on phosphorylation / MAPK signaling [3]
c1cc(CN2CCCNCCNCCCNCC2)ccc1CN1CCCNCCNCCCNCC1 [AMD3100]	acts as an allosteric agonist of this receptor	do not exert mitochondrial cytotoxicity, in contrast to AMD3100	the effect could be abrogated by adding plerixafor		
CXCL12: chemokine ligand CXCL12				81%	increased upon CXCL12 stimulation; also recorded: increases MAPK signaling in cells expressing CXCR4 wildtype constitutively to the same extent as in CXCR4-mutant cells
